# From US20260325605A1, “INHIBITORS” (Zealand Pharma A/S, priority 2022, published 2026)
# Assays:
# Kv1.2 = target: T1, Kv1.2 (Homo sapiens, UniProt P16389); assay: Patch clamp assay (QPatch), Kv1.2; format: cell-based; details: for IC50: QPatch, CHO cells stably expressing human Kv1.2, read-out: Potency IC50, Kv1.2; for Selectivity Kv1.2/Kv1.3: ratio of IC50 Kv1.2/Kv1.3
# T1 construct: expressed in transfected cells
# Description: (§1) Selectivity of Kv1.3 inhibitor peptides for Kv1.3 over other potassium ion channels (Kv1.1, Kv1.2 and Kv1.6) was determined using patch clamp assay.
# (§2) Chinese Hamster Ovary (CHO) cell lines stably expressing exogenous human α-subunits of each potassium ion channel were grown and passaged under standard culture conditions.
# (§3) The automated, chip-based planar patch clamp device QPatch® was used to quantitate the ionic currents. All recordings were made in the conventional whole-cell configuration after establishment of gigaohm seals. […] During experiments 0.1% (v/v) BSA was included as a vehicle in all external recording solutions. Currents were elicited from a holding potential of −80 mV using a voltage protocol, which shifted the voltage to 30 mV for 500 ms every 15 s.
# (§4) Concentration-response relationships were established by cumulatively applying seven escalating concentrations of test sample to an individual cell with a recording period of 2 min per compound application.
# (§5) The efficacy was determined as the mean charge for the last three sweeps at the end of each concentration application period from the cursor positions. The percent inhibition for each test dose application period was calculated as the reduction in mean cursor value (charge) relative to the cursor value measured at the end of the vehicle period and used to calculate the IC50 from the concentration response curve.
# Kv1.6 = target: T2, Kv1.6 (Homo sapiens, UniProt P17658); assay: Patch clamp assay (QPatch), Kv1.6; format: cell-based; details: for IC50: QPatch, CHO cells stably expressing human Kv1.6, read-out: Potency IC50, Kv1.6; for Selectivity Kv1.6/Kv1.3: ratio of IC50 Kv1.6/Kv1.3
# T2 construct: expressed in transfected cells
# [1] = test system: T-cell activation in rat whole blood; assay: Example 4: IL-17A release in thapsigargin stimulated rat whole blood; format: cell-based, rat (Lewis or Sprague-Dawley); details: 24 Hr, at least 2 replicates, unit inferred, read-out: IC50 (inhibition of IL-17A release)
# Source text: Rat whole blood was used to assess the potency of Kv1.3 inhibitor peptides on T-cell activation as determined by IL-17A release after stimulation with thapsigargin. Addition of thapsigargin results in activation of a signalling cascade ending up in activation of T cell proliferation and cytokine production where the Kv1.3 ion channel plays a key role, so activity of Kv1.3 inhibitors in primary cells can be measured in this experimental system.
# Rat whole blood was obtained from healthy, naïve Lewis or Sprague-Dawley rats that were terminally bleed from the heart using Sodium Heparin blood sampling tubes for collection. Peptides were diluted to 4× final testing concentrations in assay buffer (DMEM+GlutaMAX), GlutaMAX is a medium comprising 3.97 mM L-alanine-L-glutamine (Gibco Cat #61965026) supplemented with 25 mM HEPES buffer, 1 mM Sodium Pyruvate, 100 units/ml Penicillin, 100 μg/ml Streptomycin and 0.05% Casein from bovine milk (Sigma-Aldrich)) and 25 μl was added to wells of a 96 well plate. Then 50 μl whole rat blood was added and incubated for minimum 5 minutes at room temperature to allow compound binding. Then 25 μl 40 μM thapsigargin diluted in assay buffer was added to all wells of the assay plates to activate the cells, followed by incubation for 24 Hr at 37° C./5% CO2 in a humidified box. The assay plates were centrifuged for 10 min at 300 g at 4° C. and the supernatants were transferred to new plates. The concentrations of IL-17A released to the supernatants were measured using a Rat IL-17A ELISA Kit (Abcam Cat #ab214028) as recommended by the manufacturer. Samples were diluted 2.5-fold by transferring 20 μl of the supernatants to wells on ELISA plates containing 30 μl buffer 75BS from the detection kit.
# Data from peptides eliciting an inhibition of IL-17A were normalised relative to full thapsigargin activation (no inhibitor added) and no activation controls (addition of assay buffer instead of thapsigargin) to calculate the IC50 from the concentration response curve.
# Results are shown in Table 5, expressed as IC50, with standard deviation (IC50_SD). All values are derived from at least 2 replicates. The biological effects ex vivo show a correlation with the potency of the peptides.
# Kv1.3 = target: T3, Kv1.3 (Homo sapiens, UniProt P22001); assay: Patch clamp assay (QPatch), Kv1.3; format: cell-based; details: CHO cells stably expressing human Kv1.3, read-out: Potency IC50, Kv1.3
# T3 construct: expressed in transfected cells
# Description: as §1, §2, §3, §4, §5
# Kv1.1 = target: T4, Kv1.1 (Homo sapiens, UniProt Q09470); assay: Patch clamp assay (QPatch), Kv1.1; format: cell-based; details: for IC50: QPatch, CHO cells stably expressing human Kv1.1, read-out: Potency IC50, Kv1.1; for Selectivity Kv1.1/Kv1.3: ratio of IC50 Kv1.1/Kv1.3
# T4 construct: expressed in transfected cells
# T4 sequence (Q09470 whole entry): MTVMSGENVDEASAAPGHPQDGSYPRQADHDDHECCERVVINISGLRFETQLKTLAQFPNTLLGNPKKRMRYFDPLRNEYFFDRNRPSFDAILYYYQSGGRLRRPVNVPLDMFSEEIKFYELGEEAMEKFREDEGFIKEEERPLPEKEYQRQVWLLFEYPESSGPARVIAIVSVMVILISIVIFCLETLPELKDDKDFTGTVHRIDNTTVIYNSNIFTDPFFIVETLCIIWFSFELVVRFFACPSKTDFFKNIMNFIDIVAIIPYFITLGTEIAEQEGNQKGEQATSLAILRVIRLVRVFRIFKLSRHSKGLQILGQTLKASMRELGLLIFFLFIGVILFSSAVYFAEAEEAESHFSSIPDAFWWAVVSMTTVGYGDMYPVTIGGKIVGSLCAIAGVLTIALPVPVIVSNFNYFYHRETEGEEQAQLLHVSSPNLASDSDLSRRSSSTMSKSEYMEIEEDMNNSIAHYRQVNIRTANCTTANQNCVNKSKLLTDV
# Description: as §1, §2, §3, §4, §5
# T1 sequence (P16389 whole entry): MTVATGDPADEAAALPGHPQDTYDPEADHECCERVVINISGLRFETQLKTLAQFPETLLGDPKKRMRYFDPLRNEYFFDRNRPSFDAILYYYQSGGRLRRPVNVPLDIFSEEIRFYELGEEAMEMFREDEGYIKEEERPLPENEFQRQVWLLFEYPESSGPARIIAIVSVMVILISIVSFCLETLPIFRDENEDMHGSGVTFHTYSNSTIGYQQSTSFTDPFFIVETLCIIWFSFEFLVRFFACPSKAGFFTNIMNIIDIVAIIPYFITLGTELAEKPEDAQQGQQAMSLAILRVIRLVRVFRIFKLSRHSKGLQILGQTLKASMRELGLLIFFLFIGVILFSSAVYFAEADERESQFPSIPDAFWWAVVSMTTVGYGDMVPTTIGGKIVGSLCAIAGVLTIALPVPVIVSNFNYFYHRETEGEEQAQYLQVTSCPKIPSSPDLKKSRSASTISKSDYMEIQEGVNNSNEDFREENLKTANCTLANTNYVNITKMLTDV
# T3 sequence (P22001 whole entry): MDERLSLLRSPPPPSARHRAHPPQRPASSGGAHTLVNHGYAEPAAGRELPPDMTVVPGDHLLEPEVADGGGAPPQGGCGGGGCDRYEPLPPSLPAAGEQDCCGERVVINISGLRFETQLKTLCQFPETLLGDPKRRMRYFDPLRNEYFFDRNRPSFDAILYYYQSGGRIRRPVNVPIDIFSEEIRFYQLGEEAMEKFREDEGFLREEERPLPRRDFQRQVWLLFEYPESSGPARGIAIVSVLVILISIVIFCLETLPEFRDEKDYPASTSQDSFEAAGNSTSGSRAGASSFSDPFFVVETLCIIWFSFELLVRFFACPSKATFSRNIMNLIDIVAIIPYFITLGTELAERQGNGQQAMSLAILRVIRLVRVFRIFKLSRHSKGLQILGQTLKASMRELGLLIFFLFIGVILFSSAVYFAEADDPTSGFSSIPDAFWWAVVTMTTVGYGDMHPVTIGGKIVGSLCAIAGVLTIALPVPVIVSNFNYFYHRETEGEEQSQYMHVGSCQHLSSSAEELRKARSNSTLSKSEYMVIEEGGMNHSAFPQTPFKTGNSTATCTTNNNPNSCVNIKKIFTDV
# T2 sequence (P17658 whole entry): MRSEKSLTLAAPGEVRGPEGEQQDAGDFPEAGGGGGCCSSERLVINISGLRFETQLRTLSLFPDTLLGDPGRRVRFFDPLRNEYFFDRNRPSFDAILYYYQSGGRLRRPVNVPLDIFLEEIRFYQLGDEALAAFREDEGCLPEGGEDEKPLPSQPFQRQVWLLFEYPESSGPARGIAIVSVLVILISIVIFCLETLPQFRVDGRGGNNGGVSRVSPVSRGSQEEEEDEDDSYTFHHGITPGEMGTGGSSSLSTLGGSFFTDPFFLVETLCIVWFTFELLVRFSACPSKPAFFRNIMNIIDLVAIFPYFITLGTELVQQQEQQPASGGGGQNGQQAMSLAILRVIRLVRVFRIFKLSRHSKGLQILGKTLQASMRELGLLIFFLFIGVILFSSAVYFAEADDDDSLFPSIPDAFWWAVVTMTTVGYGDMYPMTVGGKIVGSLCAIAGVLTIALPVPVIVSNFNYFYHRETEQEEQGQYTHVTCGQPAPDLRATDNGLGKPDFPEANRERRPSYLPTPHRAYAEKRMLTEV
Substance,IC50 (Kv1.2),Selectivity Kv1.2/Kv1.3 (Kv1.2),IC50 (Kv1.6),Selectivity Kv1.6/Kv1.3 (Kv1.6),IC50 [1],IC50 (Kv1.3),IC50 (Kv1.1),Selectivity Kv1.1/Kv1.3 (Kv1.1)
Ac-C(1)SASVEC(2)KQKC(3)LKAIGSIFGKC(1)[Nle]NKKC(2)KC(3)YPR-NH2 [Peptide 109],384 nM,1591,> 3000 nM,>12400,0.88 nM,0.24 nM,> 3000 nM,>12400
Ac-LRC(1)SASVEC(2)KQKC(3)LKAIGSIFGKC(1)[Nle]NKKC(2)KC(3)YPR-NH2 [Peptide 114],122 nM,352,2460 nM,7096,0.37 nM,0.35 nM,> 3000 nM,>8700
Ac-SKC(1)SASVEC(2)KQKC(3)LKAIGSIFGKC(1)[Nle]NKKC(2)KC(3)YPR-NH2 [Peptide 113],196 nM,196,1450 nM,1451,0.36 nM,1 nM,> 3000 nM,>3000
H-C(1)SASVEC(2)KQKC(3)LKAIGSIFGKC(1)MNKKC(2)KC(3)YPR-OH [Peptide 124],1830 nM,878,> 3000 nM,>1400,1.9 nM,2.09 nM,> 3000 nM,>1400
H-H[Nle]D[Nle]RC(1)SASVEC(2)KQKC(3)LKAIGSIFGKC(1)[Nle]NKKC(2)KC(3)YPR-NH2 [Peptide 65],–,–,–,–,1.2 nM,0.25 nM,–,–
H-NMDMRC(1)SASREC(2)KQKC(3)LKAIGSIFGKC(1)MNKKC(2)KC(3)YPR-NH2 [Peptide 28],11 nM,94,206 nM,1778,0.68 nM,0.12 nM,> 3000 nM,>25900
H-NMDMRC(1)SASVEC(2)KEKC(3)LKAIGSIFGKC(1)MNKKC(2)KC(3)YPR-NH2 [Peptide 32],179 nM,648,> 3000 nM,>10800,0.86 nM,0.28 nM,> 3000 nM,>10800
H-NMDMRC(1)SASVEC(2)KLKC(3)LKAIGSIFGKC(1)MNKKC(2)KC(3)YPR-NH2 [Peptide 33],–,–,–,–,0.75 nM,0.38 nM,–,–
H-NMDMRC(1)SASVEC(2)KQKC(3)KKAIGSIFGKC(1)MNKKC(2)KC(3)YPR-NH2 [Peptide 20],45 nM,202,435 nM,1955,0.56 nM,0.22 nM,> 3000 nM,>13500
H-NMDMRC(1)SASVEC(2)KQKC(3)LKAIESIFGKC(1)MNKKC(2)KC(3)YPR-NH2 [Peptide 23],181 nM,615,> 3000 nM,>10200,2.8 nM,0.29 nM,> 3000 nM,>10200
H-NMDMRC(1)SASVEC(2)KQKC(3)LKAIGSIFGKC(1)MNGKC(2)KC(3)YPR-NH2 [Peptide 37],439 nM,1422,> 3000 nM,>9700,1.2 nM,0.31 nM,> 3000 nM,>9700
H-NMDMRC(1)SASVEC(2)KQKC(3)LKAIGSIFGKC(1)MNKKC(2)HC(3)YPR-NH2 [Peptide 38],338 nM,1816,> 3000 nM,>16100,0.77 nM,0.19 nM,> 3000 nM,>16100
H-NMDMRC(1)SASVEC(2)KQKC(3)LKAIGSKFGKC(1)MNKKC(2)KC(3)YPR-NH2 [Peptide 35],100 nM,237,207 nM,490,2.1 nM,0.42 nM,> 3000 nM,>7100
H-NMDMRC(1)SASVEC(2)KQKC(3)LKAIRSIFGKC(1)MNKKC(2)KC(3)YPR-NH2 [Peptide 22],57 nM,259,626 nM,2851,0.82 nM,0.22 nM,> 3000 nM,>13700
H-NMDMRC(1)SASVEC(2)KQLC(3)LKAIGSIFGKC(1)MNKKC(2)KC(3)YPR-NH2 [Peptide 19],256 nM,1080,> 3000 nM,>12700,3.2 nM,0.24 nM,> 3000 nM,>12700
H-NMDMRC(1)SASVEC(2)LQKC(3)LKAIGSIFGKC(1)MNKKC(2)KC(3)YPR-NH2 [Peptide 30],874 nM,2163,> 3000 nM,>7400,0.76 nM,0.4 nM,> 3000 nM,>7400
H-NMDMRC(1)SASVQC(2)KQKC(3)LKAIGSIFGKC(1)MNKKC(2)KC(3)YPR-NH2 [Peptide 29],16 nM,83,252 nM,1272,0.53 nM,0.2 nM,> 3000 nM,>15200
H-NMDMRC(1)SISVEC(2)KQKC(3)LKAIGSIFGKC(1)MNKKC(2)KC(3)YPR-NH2 [Peptide 27],43 nM,169,> 3000 nM,>11800,0.61 nM,0.26 nM,> 3000 nM,>11800
H-N[Nle]D[Nle]RC(1)RASVEC(2)KQKC(3)LKAIGSIFGKC(1)[Nle]NKKC(2)KC(3)YPR-NH2 [Peptide 43],109 nM,674,316 nM,1954,0.91 nM,0.16 nM,> 3000 nM,>18600
H-N[Nle]D[Nle]RC(1)SASKEC(2)KQKC(3)LKAIGSIFGKC(1)[Nle]NKKC(2)KC(3)YPR-NH2 [Peptide 64],184 nM,587,1230 nM,3929,0.68 nM,0.31 nM,> 3000 nM,>9600
H-N[Nle]D[Nle]RC(1)SASVEC(2)KKKC(3)LKAIGSIFGKC(1)[Nle]NKKC(2)KC(3)YPR-NH2 [Peptide 46],257 nM,343,> 3000 nM,>4000,1.4 nM,0.75 nM,> 3000 nM,>4000
H-S[Nle]D[Nle]RC(1)SASVEC(2)AQSC(3)LKAIGSIFGKC(1)MNKKC(2)KC(3)YPR-NH2 [Peptide 81],1150 nM,5596,> 3000 nM,>14600,–,0.21 nM,> 3000 nM,>14600
H-S[Nle]D[Nle]RC(1)SASVEC(2)KQKC(3)LKAIGSIFGKC(1)MNKKC(2)RC(3)YPR-NH2 [Peptide 77],–,–,–,–,0.86 nM,0.13 nM,–,–
H-S[Nle]D[Nle]RC(1)SASVEC(2)KQKC(3)LKAIGSIFGKC(1)[Nle]NKKC(2)KC(3)YPR-NH2 [Peptide 67],–,–,–,–,0.47 nM,0.18 nM,–,–
H-V[Nle]D[Nle]RC(1)SASVEC(2)KQKC(3)LKAIGSIFGKC(1)[Nle]NKKC(2)KC(3)YPR-NH2 [Peptide 69],–,–,–,–,0.98 nM,0.32 nM,–,–
H-Y[Nle]D[Nle]RC(1)SASVEC(2)KQKC(3)LKAIGSIFGKC(1)[Nle]NKKC(2)KC(3)YPR-NH2 [Peptide 66],–,–,–,–,1.1 nM,0.14 nM,–,–
